The results in this text go back to patent US20240050577A1, “CDK INHIBITORS AND PHARMACEUTICAL USES THEREOF” (RISEN (SUZHOU) PHARMA TECH CO., LTD., priority 2022, published 2024).

Each structure is given as a SMILES string.

Holding throughout (assay type): cell-based
Experiment [1] deals with T1, CDK2 protein (Homo sapiens, UniProt P24941).
T1 construct: host or cells: OVCAR3
The experiment in a line: CDK2 protein degradation in OVCAR3 cells (Western blot). As to conditions: 24 h; for level of CDK2 protein degradation: 50 nM test compound; for DC50: read-out: DC50 CDK2 (half-maximum degradation concentration). As to the method:
(§1) OVCAR3 (Cobioer, CBP60294) cell line of exponential growth phase was inoculated on a 6-well cell culture plate (Corning, 3516) according to 3E5/well scheme; and the plate was incubated overnight in a 5%-carbon dioxide incubator at 37° C. The next day, the test compound was dissolved in DMSO (Sigma, RNBF5902) to prepare a 10-mM concentration stock solution. The stock solution was diluted with complete medium, giving working solutions of different concentrations. Working solution was added into the corresponding wells of the orifice plate. The plate was placed in a 5% carbon dioxide incubator, set at 37° C., and incubated for 24 h. The plate was removed from the incubator, and the cells were washed twice with precooled PBS (Gibco, 14190250), followed by addition of 40 μL RIPA lysis buffer (containing protease inhibitor (Invitrogen™, AM2696)) to each well. Adherent cells were scraped off with a cell scraper, and the cell lysate was transferred to a 1.5 mL centrifuge tube, and the tube was placed on ice for 30 minutes. After completion of cell lysis, the tube was centrifugated for 10 min at 4° C., 14000 rpm. The supernatant was transferred into a new 1.5-mL centrifuge tube, and the new tube was placed on ice, followed by measurement of the protein concentration with BCA protein detection kit (Thermo Fisher, 23225). A mixture of cell lysate (40 μL) and loading buffer (10 μL, 5×SDS (Beyotime, P0015L)) was placed into a water bath at 95° C. for 10 min to denature the protein. The denatured protein sample, 30 μL/well, was added into a corresponding well of 4-20% Bis-Tris gel (Kingsley, M00657). The initial voltage was adjusted to 80-V and run for 30 min, followed by voltage increased to 120 V, and run for another 40 min, until the strip had run to the appropriate position. After electrophoresis, iBlot2 (Life Technologies, IB21001) was used to transfer the film under the condition of 20 V and 7 min. At the end of film transfer, 5% skimmed milk powder was sealed at room temperature for 2 h, and then TBST (Thermo Scientific, 28360) buffer solution was used to rinse for three times, 10 minutes each time. Skimmed milk powder (5%) was diluted with the first antibody in the appropriate proportion, and the working solution of the first antibody was prepared and incubated overnight at 4° C. After the incubation of the first antibody, the membrane was washed three times at room temperature with TBST buffer solution, 10 minutes each time; and the second antibody was incubated with 5% skimmed milk powder at room temperature for 1 h. After washing the film for three times with TBST, ECL color developing solution (Thermofisher 34095) was added, and an image was taken on a Biorad Chemi Doc gel imager. The band gray value was analyzed (Image Lab).
(§2) Symbols of “−”, “+”, “++”, and “+++” indicate that the degradation level of CDK protein induced by test compound was 10% or less, 11 to 30%, 31 to 60%, and greater than 60%, respectively.
(§3) Half-maximum degradation concentrations (DC50s) of test compounds were calculated using GraphPad Prism and their values are shown in Table 4. Symbols of “++++”, “+++”, “++”, “+” and “−” represent DC50s equal or less than 10 nM, 11-50 nM, 51-100 nM, 101-200 nM, and >200 nM, respectively.
(In general: A western blot detects proteins with antibodies after separation by electrophoresis.)

In experiment [2] the test system is OVCAR3 cells. The experiment in a line: Cell proliferation study (Cell Titer Glo, 72 h). The settings on record: Homo sapiens, OVCAR-3, luminescence, read-out: IC50, inhibitory effect on cellular proliferation. Background: ATP-based viability assays read luminescence as a measure of living cells.
The target of experiment [3] is T2, CDK4 protein (Homo sapiens, UniProt P11802).
T2 construct: host or cells: OVCAR3
The experiment in a line: CDK4 protein degradation in OVCAR3 cells (Western blot). As to conditions: 24 h; for DC50: read-out: DC50 CDK4 (half-maximum degradation concentration); for percent CDK4 protein degradation at 0.05 µM: OVCAR-3, 50 nM test compound, read-out: level of CDK4 protein degradation. As to the method: as §1, §2, §3

For experiment [4], the target named is T3, CDK1 protein (Homo sapiens, UniProt P06493).
T3 construct: host or cells: OVCAR3
Kind of experiment: CDK1 protein degradation in OVCAR3 cells (Western blot). The settings on record: 24 h; for DC50: read-out: DC50 CDK1 (half-maximum degradation concentration); for percent CDK1 protein degradation at 0.05 µM: OVCAR-3, 50 nM test compound, read-out: level of CDK1 protein degradation. On the procedure: as §1, §2, §3

For experiment [5], the target named is T4, CDK6 protein (Homo sapiens, UniProt Q00534).
T4 construct: host or cells: OVCAR3
Kind of experiment: CDK6 protein degradation in OVCAR3 cells (Western blot). As to conditions: 24 h; for DC50: read-out: DC50 CDK6 (half-maximum degradation concentration); for percent CDK6 protein degradation at 0.05 µM: OVCAR-3, 50 nM test compound, read-out: level of CDK6 protein degradation. As to the method: as §1, §2, §3

T2 sequence (P11802 whole entry): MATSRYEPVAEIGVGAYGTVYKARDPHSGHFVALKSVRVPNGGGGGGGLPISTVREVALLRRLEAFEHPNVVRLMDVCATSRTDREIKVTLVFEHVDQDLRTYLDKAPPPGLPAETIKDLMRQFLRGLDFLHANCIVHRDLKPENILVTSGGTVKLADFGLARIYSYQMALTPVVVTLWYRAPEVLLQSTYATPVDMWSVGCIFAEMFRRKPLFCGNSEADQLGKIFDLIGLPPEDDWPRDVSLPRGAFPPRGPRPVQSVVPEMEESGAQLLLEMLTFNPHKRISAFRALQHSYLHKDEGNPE
T3 sequence (P06493 whole entry): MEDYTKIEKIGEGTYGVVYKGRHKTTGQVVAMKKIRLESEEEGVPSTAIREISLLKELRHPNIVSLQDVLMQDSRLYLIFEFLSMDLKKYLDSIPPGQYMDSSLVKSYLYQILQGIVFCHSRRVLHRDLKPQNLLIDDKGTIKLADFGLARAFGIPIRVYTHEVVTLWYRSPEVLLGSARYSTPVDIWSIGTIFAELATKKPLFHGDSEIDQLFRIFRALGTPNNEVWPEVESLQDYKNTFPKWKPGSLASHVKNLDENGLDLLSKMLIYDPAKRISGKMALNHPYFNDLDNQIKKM
T4 sequence (Q00534 whole entry): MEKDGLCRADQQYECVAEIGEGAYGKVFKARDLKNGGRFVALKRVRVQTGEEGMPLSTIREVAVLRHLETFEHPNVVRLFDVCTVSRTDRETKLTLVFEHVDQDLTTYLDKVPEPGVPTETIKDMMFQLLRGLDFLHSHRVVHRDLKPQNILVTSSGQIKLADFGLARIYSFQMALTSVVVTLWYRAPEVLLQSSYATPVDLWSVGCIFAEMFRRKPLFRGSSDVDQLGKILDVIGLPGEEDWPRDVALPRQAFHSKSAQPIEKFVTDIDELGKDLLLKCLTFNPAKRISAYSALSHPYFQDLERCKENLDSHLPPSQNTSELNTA

As for `Cc1nc2c(F)cc(-c3nc(NC4CCN(S(=O)(=O)C5CCN(CC6CCN(C7CN(c8cc9c(cc8F)C(=O)N(C8CCC(=O)NC8=O)C9=O)C7)CC6)CC5)CC4)ncc3F)cc2n1C(C)C` (stereo not shown) [Compound 80], in experiment [1], the “level of CDK2 protein degradation” value is reported as “++ (31 to 60%)” and the DC50 is more than 200 nM. The IC50 in experiment [2] was less than 100 nM. Besides, in experiment [3], the DC50 is more than 200 nM and the percent CDK4 protein degradation at 0.05 µM was not above 10%. Further, in experiment [4], the DC50 is more than 200 nM and the percent CDK1 protein degradation at 0.05 µM is not above 10%. Moreover, in experiment [5], the DC50 is less than 10 nM and the percent CDK6 protein degradation at 0.05 µM is more than 60%.
Consider `Cc1nc2c(F)cc(-c3nc(Nc4ccc(S(=O)(=O)C5CCN(C6CCN(C7CN(c8cc9c(cc8F)C(=O)N(C8CCC(=O)NC8=O)C9=O)C7)CC6)CC5)cc4)ncc3F)cc2n1C(C)C` (stereo not shown) [Compound 64], for which, in experiment [1], the “level of CDK2 protein degradation” value is on record as “+++ (greater than 60%)” and the DC50 is more than 200 nM. Further, the IC50 in experiment [2] was less than 100 nM. In experiment [3], the DC50 is more than 200 nM and the percent CDK4 protein degradation at 0.05 µM was not above 10%. In experiment [4], the DC50 was more than 200 nM and the percent CDK1 protein degradation at 0.05 µM is more than 60%. Besides, in experiment [5], the DC50 was more than 200 nM and the percent CDK6 protein degradation at 0.05 µM was more than 60%.
For the molecule `C[C@@]1(O)CCC[C@H]1n1c(=O)c(C(F)F)cc2cnc(NC3CCN(S(=O)(=O)C4CCN(CC5CCN(C6CN(c7cc8c(cc7F)C(=O)N(C7CCC(=O)NC7=O)C8=O)C6)CC5)CC4)CC3)nc21` (stereo partly shown) [Compound 37], in experiment [1], the “level of CDK2 protein degradation” value is listed as “+++ (greater than 60%)” and the DC50 is less than 10 nM. In addition, the IC50 in experiment [2] is less than 100 nM. Further, in experiment [3], the DC50 was more than 200 nM and the percent CDK4 protein degradation at 0.05 µM is not above 10%. Besides, in experiment [4], the DC50 was less than 10 nM and the percent CDK1 protein degradation at 0.05 µM was more than 60%. In experiment [5], the DC50 was more than 200 nM and the percent CDK6 protein degradation at 0.05 µM is more than 60%.
Consider `Cc1nc2c(F)cc(-c3nc(NC4CCN(S(=O)(=O)C5CCN(CC6CC7(C6)CN(c6cc8c(cc6F)C(=O)N(C6CCC(=O)NC6=O)C8=O)C7)CC5)CC4)ncc3F)cc2n1C(C)C` (stereo not shown) [Compound 88], for which, in experiment [1], the “level of CDK2 protein degradation” value is “+++ (greater than 60%)” and the DC50 lay within 101 to 200 nM. The IC50 in experiment [2] was less than 100 nM. In addition, in experiment [3], the DC50 is more than 200 nM and the percent CDK4 protein degradation at 0.05 µM is not above 10%. Besides, in experiment [4], the DC50 fell in the range of 11 to 50 nM and the percent CDK1 protein degradation at 0.05 µM was in the range of 31 to 60%. In addition, in experiment [5], the DC50 was more than 200 nM and the percent CDK6 protein degradation at 0.05 µM is more than 60%.
Turning to `Cc1nc2c(F)cc(-c3nc(NC4CCN(S(=O)(=O)C5CCN(C6CCN(C7CN(c8cc9c(cc8F)C(=O)N(C8CCC(=O)NC8=O)C9=O)C7)CC6)CC5)CC4)ncc3F)cc2n1C(C)C` (stereo not shown) [Compound 83], in experiment [1], the “level of CDK2 protein degradation” value is given as “++ (31 to 60%)” and the DC50 lay in the range of 101 to 200 nM. Besides, the IC50 in experiment [2] is less than 100 nM. In experiment [3], the DC50 was more than 200 nM and the percent CDK4 protein degradation at 0.05 µM was not above 10%. In experiment [4], the DC50 was 101 to 200 nM and the percent CDK1 protein degradation at 0.05 µM fell in the range of 31 to 60%. For the same molecule, in experiment [5], the DC50 lay within 101 to 200 nM and the percent CDK6 protein degradation at 0.05 µM was more than 60%.
`Cc1ccsc1C(=O)n1nc(Nc2ccc(S(=O)(=O)NCCOCc3cn(CCOCCOCCNc4cccc5c4C(=O)N(C4CCC(=O)NC4=O)C5=O)nn3)cc2)nc1N` (stereo not shown) [Compound 32]: the IC50 in experiment [2] is more than 10000 nM.
Same read-out and setting: the figure for `Cc1nc2c(F)cc(-c3nc(Nc4ccc(S(=O)(=O)N5CCN(CC6CCN(c7cccc8c7C(=O)N(C7CCC(=O)NC7=O)C8=O)CC6)CC5)cc4)ncc3F)cc2n1C(C)C` (stereo not shown) [Compound 57] is 101 to 1000 nM; for `CC(C)N1CCOc2c(F)cc(-c3nc(Nc4ccc(S(=O)(=O)NCCOCc5cn(CCOCCOCCNc6cccc7c6C(=O)N(C6CCC(=O)NC6=O)C7=O)nn5)cc4)ncc3F)cc21` (stereo not shown) [Compound 20, N-[2-[[1-[2-[2-[2-[[2-(2,6-dioxo-3-piperidyl)-1,3-dioxo-isoindolin-4-yl]amino]ethoxy]ethoxy]ethyl]triazol-4-yl]methoxy]ethyl]-4-[[5-fluoro-4-(8-fluoro-4-isopropyl-2,3-dihydro-1,4-benzoxazin-6-yl)pyrimidin-2-yl]amino]benzenesulfonamide] it is more than 10000 nM.
Still for that read-out and setting: as for `C[C@@]1(O)CCC[C@H]1n1c(=O)ccc2cnc(NC3CCN(S(=O)(=O)C4CCN(C5CCC6(CCN(c7cc8c(cc7F)C(=O)N(C7CCC(=O)NC7=O)C8=O)C6)C5)CC4)CC3)nc21` (stereo partly shown) [Compound 84], the figure is 101 to 1000 nM; as for `Cc1nc2c(F)cc(-c3nc(NC4CCN(S(=O)(=O)C5CCN(CCC6CCN(c7cc8c(cc7F)C(=O)N(C7CCC(=O)NC7=O)C8=O)CC6)CC5)CC4)ncc3F)cc2n1C(C)C` (stereo not shown) [Compound 104], 101 to 1000 nM.
With `CC(C)N1CCOc2c(F)cc(-c3nc(Nc4ccc(C5CCN(CCCCNC(=O)COc6cccc7c6C(=O)N(C6CCC(=O)NC6=O)C7=O)CC5)nc4)ncc3F)cc21` (stereo not shown) [Compound 30], in experiment [2], the IC50 lay within 101 to 1000 nM.
Still for that read-out and setting: as for `C[C@@]1(O)CCC[C@H]1n1c(=O)ccc2cnc(NC3CCN(S(=O)(=O)CCCCCCCCCOc4cccc5c4C(=O)N(C4CCC(=O)NC4=O)C5=O)CC3)nc21` (stereo partly shown) [Compound 92], the figure is more than 10000 nM.
Same read-out and setting: the figure for `Cc1nc2c(F)cc(-c3nc(Nc4ccc(S(=O)(=O)NCCOCc5cn(CCOCCOCCNc6cccc7c6C(=O)N(C6CCC(=O)NC6=O)C7=O)nn5)cc4)ncc3F)cc2n1C(C)C` (stereo not shown) [Compound 50] is 1000 to 5000 nM; for `CC(C)N1CCOc2c(F)cc(-c3nc(Nc4ccc(S(=O)(=O)N5CCN(CC6CCN(c7ccc8c(c7)C(=O)N(C7CCC(=O)NC7=O)C8=O)CC6)CC5)cc4)ncc3F)cc21` (stereo not shown) [Compound 33] it is more than 10000 nM.
On the same count and under the same terms, as for `Cc1nc2c(F)cc(-c3nc(NC4CCN(S(=O)(=O)C5CCN(CC6CC(N7CCC(c8ccc9c(C%10CCC(=O)NC%10=O)nn(C)c9c8)CC7)C6)CC5)CC4)ncc3F)cc2n1C(C)C` (stereo not shown) [Compound 103], the figure is less than 100 nM; as for `CC(C)N1CCOc2c(F)cc(-c3nc(Nc4ccc(C5CCN(C6CC7(CCN(c8cc9c(cc8F)C(=O)N(C8CCC(=O)NC8=O)C9=O)CC7)C6)CC5)cn4)ncc3F)cc21` (stereo not shown) [Compound 18, 2-(2,6-dioxo-3-piperidyl)-5-fluoro-6-[2-[4-[6-[[5-fluoro-4-(8-fluoro-4-isopropyl-2,3-dihydro-1,4-benzoxazin-6-yl)pyrimidin-2-yl]amino]-3-pyridyl]-1-piperidyl]-7-azaspiro[3.5]nonan-7-yl]isoindoline-1,3-dione], more than 10000 nM.
Regarding `Cc1nc2c(F)cc(-c3nc(NC4CCN(S(=O)(=O)C5CCN(CC6CC(N7CCC(c8cccc(C9CCC(=O)NC9=O)c8)CC7)C6)CC5)CC4)ncc3F)cc2n1C(C)C` (stereo not shown) [Compound 102], in experiment [2], the IC50 fell in the range of 101 to 1000 nM.
For `C[C@@]1(O)CCC[C@H]1n1c(=O)ccc2cnc(NC3CCN(S(=O)(=O)C4CCN(C5CCC6(CCN(c7cc8c(cc7F)C(=O)N(C7CCC(=O)NC7=O)C8=O)CC6)C5)CC4)CC3)nc21` (stereo partly shown) [Compound 81], the IC50 in experiment [2] lay in the range of 101 to 1000 nM.
